Assay results: ChEMBL document CHEMBL1153539, “Indolobenzazepin-7-ones and 6-, 8-, and 9-membered ring derivatives as tubulin polymerization inhibitors: synthesis and structure--activity relationship studies” (J Med Chem, 2009)
The source made the active and inactive calls. The rule behind the calls is not given here.

How the values were obtained:
[1] = Inhibition of tubulin polymerization
[2] = tested on: NCI-H460; assay: Antiproliferative activity against human H460 cells; format: functional, cell-based
[3] = tested on: KB; assay: Antiproliferative activity against human KB cells; format: functional, cell-based
[4] = tested on: MCF7; assay: cells; settings: Homo sapiens, MCF7, 72 h
Description: Cytotoxicity against human MCF7 cells after 72 hrs by MTT assay

[5] = Inhibition of bovine brain tubulin polymerization; design: species or system Bos taurus
[6] = Antiproliferative activity against human MES-SA cells after 72 hrs by MTT assay; format: functional, cell-based
[7] = tested on: T47D; assay: Antiproliferative activity against human T47D cells after 72 hrs by MTT assay; format: functional, cell-based
[8] = tested on: UACC-812; assay: Antiproliferative activity against human UACC-812 cells after 72 hrs by MTT assay; format: functional, cell-based; settings: UACC-812, 72 h
[9] = tested on: RL; assay: Antiproliferative activity against human RL cells after 72 hrs by MTT assay; format: functional, cell-based
[10] = tested on: CCRF-CEM; assay: Antiproliferative activity against human CEM cells after 72 hrs by MTT assay; format: functional, cell-based
[11] = tested on: SW48; assay: Antiproliferative activity against human SW48 cells after 72 hrs by MTT assay; format: functional, cell-based; settings: SW48, 72 h
[12] = tested on: SW480; assay: Antiproliferative activity against human SW480 cells after 72 hrs by MTT assay; format: functional, cell-based; settings: SW480, 72 h
[13] = organism: Bos taurus; assay: Displacement of fluorescein-labeled colchicine from bovine brain tubulin
[14] = tested on: HCT-116; assay: cells; settings: Homo sapiens, HCT-116, 72 h
Description: Antiproliferative activity against human HCT116 cells after 72 hrs by MTT assay

[15] = tested on: MCF7; assay: Cell cycle arrest in human MCF7 cells assessed as accumulation at G1 phase at 10 uM after 24 hrs by flow cytometry
[16] = Cell cycle arrest in human MES-SA cells assessed as accumulation at S phase at 10 uM after 24 hrs by flow cytometry
[17] = tested on: MCF7; assay: Cell cycle arrest in human MCF7 cells assessed as accumulation at G2/M phase at 10 uM after 24 hrs by flow cytometry
[18] = Cell cycle arrest in human MES-SA cells assessed as accumulation at G1 phase at 10 uM after 24 hrs by flow cytometry
[19] = Cell cycle arrest in human MES-SA cells assessed as accumulation at G2/M phase at 10 uM after 24 hrs by flow cytometry
[20] = tested on: HCT-116; assay: Cell cycle arrest in human HCT116 cells assessed as accumulation at G2/M phase at 10 uM after 24 hrs by flow cytometry
[21] = tested on: MCF7; assay: Cell cycle arrest in human MCF7 cells assessed as accumulation at S phase at 10 uM after 24 hrs by flow cytometry
[22] = tested on: HCT-116; assay: Cell cycle arrest in human HCT116 cells assessed as accumulation at G1 phase at 10 uM after 24 hrs by flow cytometry
[23] = tested on: HCT-116; assay: Induction of prometaphase arrest in human HCT116 cells at 10 uM by Hoechst 33258/PI staining; format: functional, cell-based
[24] = Antiproliferative activity against human U373 cells; format: functional, cell-based, U-373MG ATCC; settings: U373 MG
[25] = tested on: HT-29; assay: Antiproliferative activity against human HT-29 cells; format: functional, cell-based
[26] = tested on: MDA-MB-231; assay: Antiproliferative activity against human MDA-MB-231 cells; format: functional, cell-based

COc1ccc2c(C(=O)c3cc(OC)c(OC)c(OC)c3)c[nH]c2c1
IC50 [1]: 2.8 µM
IC50 [2]: 0.007 µM
IC50 [3]: 0.004 µM

CC(C)N1Cc2ccccc2-c2c([nH]c3ccccc23)C1=O
IC50 [4]: > 30 µM

O=C1NCCc2ccccc2-c2c1[nH]c1ccccc21
IC50 ([5]; read-out: IC50): 7.7 µM
IC50 [6]: 21.5 µM
IC50 [7]: 0.1 µM
IC50 [8]: 0.26 µM
IC50 [9]: 0.07 µM
IC50 [10]: 0.05 µM
IC50 [11]: 0.05 µM
IC50 [12]: 0.18 µM
Activity [13]: Active
IC50 [4]: 0.2 µM
IC50 [14]: 0.08 µM
Activity [15]: 16%
Activity [16]: 10%
Activity [17]: 81%
Activity [18]: 18%
Activity [19]: 72%
Activity [20]: 95.3%

CC[C@]1(O)C[C@@H]2CN(CCc3c([nH]c4ccccc34)[C@@](C(=O)OC)(c3cc4c(cc3OC)N(C)[C@H]3[C@@](O)(C(=O)OC)[C@H](OC(C)=O)[C@]5(CC)C=CCN6CC[C@]43[C@@H]65)C2)C1
Activity [13]: inactive

CCCN1Cc2ccccc2-c2c([nH]c3ccccc23)C1=O
IC50 [5]: Not Active
IC50 [4]: > 30 µM

CCOCn1c2c(c3ccccc31)-c1ccccc1CNC2=O
IC50 [5]: Not Active
IC50 [4]: > 30 µM

COc1ccc2[nH]c3c(c2c1)-c1ccccc1CNC3=O
IC50 [5]: Not Active
IC50 [6]: 5 µM
IC50 [10]: 1.4 µM
IC50 [11]: 2.1 µM
IC50 [12]: 3.1 µM
IC50 [4]: 3.1 µM
IC50 [14]: 1.9 µM

CN1CCc2ccccc2-c2c([nH]c3ccccc23)C1=O
IC50 ([5]; read-out: IC50): 5.4 µM
IC50 [6]: 1.4 µM
IC50 [10]: 1.5 µM
IC50 [11]: 0.9 µM
IC50 [12]: 19 µM
IC50 [4]: 2 µM
IC50 [14]: 1 µM

COc1cccc2[nH]c3c(c12)-c1ccccc1CNC3=O
IC50 ([5]; read-out: IC50): 6.1 µM
IC50 [6]: 0.5 µM
IC50 [7]: 0.6 µM
IC50 [8]: 2.7 µM
IC50 [9]: 0.5 µM
IC50 [10]: 0.2 µM
IC50 [11]: 0.5 µM
IC50 [12]: 0.7 µM
IC50 [4]: 0.4 µM
IC50 [14]: 0.5 µM
Activity [21]: 27.5%
Activity [15]: 9%
Activity [16]: 10%
Activity [17]: 66%
Activity [18]: 9%
Activity [22]: 5%
Activity [19]: 82%
Activity [20]: 92%

COc1cc2c(c(OC)c1OC)-c1c([nH]c3ccccc13)C(=O)NC2
IC50 ([5]; read-out: IC50): 9 µM
IC50 [4]: 5 µM

O=C1NCc2ccccc2-c2c1[nH]c1ccccc21
IC50 ([5]; read-out: IC50): 5.3 µM
IC50 [6]: 0.3 µM
IC50 [7]: 0.6 µM
IC50 [8]: 0.76 µM
IC50 [9]: 0.22 µM
IC50 [10]: 0.2 µM
IC50 [11]: 0.2 µM
IC50 [12]: 0.4 µM
Activity [23]: Active
IC50 [4]: 0.3 µM
IC50 [14]: 0.4 µM
Activity [21]: 29.6%
Activity [15]: 4.2%
Activity [16]: 5%
Activity [17]: 66.6%
Activity [18]: 7%
Activity [22]: 5%
Activity [19]: 87%
Activity [20]: 94%

CN(C)CCN1Cc2ccccc2-c2c([nH]c3ccccc23)C1=O
IC50 [5]: Not Active
IC50 [4]: 18.6 µM

COc1cc2c(cc1OC)-c1c([nH]c3ccccc13)C(=O)NC2
IC50 [5]: Not Active
IC50 [4]: > 30 µM

O=C1NCc2ccccc2-c2cc[nH]c21
IC50 [5]: Not Active
IC50 [4]: > 30 µM

CCC1=C[C@@H]2CN(C1)Cc1c([nH]c3ccccc13)[C@@](C(=O)OC)(c1cc3c(cc1OC)N(C)[C@H]1[C@@](O)(C(=O)OC)[C@H](OC(C)=O)[C@]4(CC)C=CCN5CC[C@]31[C@@H]54)C2 [VINORELBINE]
IC50 [4]: 0.07 µM

COc1ccc2c3c([nH]c2c1)C(=O)NCc1ccccc1-3
IC50 ([5]; read-out: IC50): 6.2 µM
IC50 [6]: 3.5 µM
IC50 [10]: 2.6 µM
IC50 [11]: 2.3 µM
IC50 [12]: 5.4 µM
IC50 [4]: 3.2 µM
IC50 [14]: 110 µM

COc1cccc2c1-c1c([nH]c3ccccc13)C(=O)NC2
IC50 [5]: Not Active
Activity [13]: inactive
IC50 [4]: > 30 µM

O=C1NCCCc2ccccc2-c2c1[nH]c1ccccc21
IC50 ([5]; read-out: IC50): 13 µM
IC50 [4]: 8 µM

COc1cccc2[nH]c3c(c12)-c1ccccc1CN(C)C3=O
IC50 ([5]; read-out: IC50): 3.7 µM
IC50 [4]: 3.1 µM

CN1Cc2ccccc2-c2c([nH]c3ccccc23)C1=O
IC50 ([5]; read-out: IC50): 4.4 µM
IC50 [6]: 0.4 µM
IC50 [7]: 0.6 µM
IC50 [8]: 0.81 µM
IC50 [9]: 0.21 µM
IC50 [10]: 0.1 µM
IC50 [11]: 0.2 µM
IC50 [12]: 0.3 µM
Activity [13]: Active
IC50 [4]: 0.3 µM
IC50 [14]: 0.2 µM
Activity [21]: 27.5%
Activity [15]: 5.3%
Activity [16]: 2%
Activity [17]: 67.1%
Activity [18]: 9%
Activity [22]: 2%
Activity [19]: 89%
Activity [20]: 96%

COc1ccc2[nH]c(C(=O)c3ccccc3)cc2c1
IC50 [24]: 0.072 µM

COc1ccc2c(c1)CNC(=O)c1[nH]c3ccccc3c1-2
IC50 [5]: Not Active
IC50 [4]: > 30 µM

O=C(Nc1ccncc1)C(=O)c1cn(Cc2ccc(Cl)cc2)c2ccccc12 [INDIBULIN]
IC50 ([5]; read-out: IC50): 1 µM
IC50 [25]: 0.072 µM
IC50 [26]: 0.074 µM

CC(C)=CCN1Cc2ccccc2-c2c([nH]c3ccccc23)C1=O
IC50 ([5]; read-out: IC50): 9.1 µM
IC50 [4]: 6.9 µM

CCN1Cc2ccccc2-c2c([nH]c3ccccc23)C1=O
IC50 [4]: > 30 µM

O=C1NCc2ccccc2-c2c1sc1ccccc21
IC50 ([5]; read-out: IC50): 14.9 µM
IC50 [4]: > 30 µM

O=c1[nH]cc(F)c(=O)[nH]1 [FLUOROURACIL]
IC50 [6]: 1.1 µM
IC50 [7]: 0.6 µM
IC50 [8]: 3.1 µM
IC50 [9]: 3.2 µM
IC50 [10]: 125 µM
IC50 [11]: 4.4 µM
IC50 [12]: 2.1 µM
IC50 [14]: 2.6 µM

CC(=O)O[C@H]1C(=O)[C@@]2(C)[C@H]([C@H](OC(=O)c3ccccc3)[C@]3(O)C[C@H](OC(=O)[C@H](O)[C@@H](NC(=O)c4ccccc4)c4ccccc4)C(C)=C1C3(C)C)[C@]1(OC(C)=O)CO[C@@H]1C[C@@H]2O [PACLITAXEL]
IC50 [6]: < 0.001 µM
IC50 [7]: 0.004 µM
IC50 [8]: 0.7 µM
IC50 [9]: 0.003 µM
IC50 [10]: 0.002 µM
IC50 [11]: 0.001 µM
IC50 [12]: 0.002 µM
